Results published in ChEMBL document CHEMBL1201862, “PubChem BioAssay data set” (2004).
Several values for one entry are separate records, joined by “and”; a condition that tells them apart may be missing. Equal entries are not always repeated. Activity calls are given as the source filed them.

Key:
Albumin = Albumin (Bos taurus, UniProt P02769); experiment: Counterscreen for inhibitors of T-cell receptor (TCR)-CD3 interaction: Fluorescence-based biochemical high throughput dose response assay to identify inhibitors of T-cell receptor (TCR)-CD3 interaction using a TAMRA-labeled BSA probe.; type: functional
Fatty acid synthase [1] = target: T1, Fatty acid synthase (Homo sapiens, UniProt P49327); experiment: inhibition of human FAS-TE enzyme activity – biochemical, endpoint fluorescence intensity, uHTS hits, dose response (AID 624327); type: functional;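 also: fluorescence from hydrolysis of an O-methyl fluorescein acyl ester substrate by the enzyme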
Fatty acid synthase [2] = target: T1, Fatty acid synthase; experiment: inhibition of human FAS-TE enzyme activity – biochemical, kinetic fluorescence intensity, dose response (AID 624326); type: functional;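 also: rate of fluorescence rise from hydrolysis of a fluorogenic O-methyl fluorescein ester substrate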
[3] = M. tuberculosis H37Rv growth inhibitors, H37Rv strain (AID 1626); type: functional
[4] = Luminescence Cell-Based Dose Retest to Confirm Inhibitors of Cancer Stem Cells. [Related pubchem assays (depositor defined):AID2717, AID2721]; type: functional; settings: Homo sapiens
[5] = viability of HCT116 lacking mutant beta-catenin – cell-based, human colon tumor, dose response (AID 1045); type: functional;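 also: HCT116 colon tumor cells with beta catenin knocked out; cells exposed to compound for 60 hours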
[6] = viability of PTEN-deleted HCT116 cells – cell-based, HCT116 PTEN knockout, dose response (AID 1047); type: functional;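 also: HCT116 colon tumor cells with PTEN knocked out; cells exposed to compound for 60 hours before readout; potency for loss of cell viability measured by luminescence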
[7] = target: T2, Heat shock factor protein 1 (Mus musculus, UniProt P38532); experiment: enhancement of HSF1-driven luciferase signal – cell-based, NIH3T3, luminescence, dose retest, confirmation (AID 435004); type: functional;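 also: stress induced by proteasome inhibitor MG132 added 30 min after compound; luciferase reporter driven by HSF1 response element in NIH3T3 cells; actives raise luminescence as potentiators of the MG132 stress response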
T2 sequence (P38532 whole entry): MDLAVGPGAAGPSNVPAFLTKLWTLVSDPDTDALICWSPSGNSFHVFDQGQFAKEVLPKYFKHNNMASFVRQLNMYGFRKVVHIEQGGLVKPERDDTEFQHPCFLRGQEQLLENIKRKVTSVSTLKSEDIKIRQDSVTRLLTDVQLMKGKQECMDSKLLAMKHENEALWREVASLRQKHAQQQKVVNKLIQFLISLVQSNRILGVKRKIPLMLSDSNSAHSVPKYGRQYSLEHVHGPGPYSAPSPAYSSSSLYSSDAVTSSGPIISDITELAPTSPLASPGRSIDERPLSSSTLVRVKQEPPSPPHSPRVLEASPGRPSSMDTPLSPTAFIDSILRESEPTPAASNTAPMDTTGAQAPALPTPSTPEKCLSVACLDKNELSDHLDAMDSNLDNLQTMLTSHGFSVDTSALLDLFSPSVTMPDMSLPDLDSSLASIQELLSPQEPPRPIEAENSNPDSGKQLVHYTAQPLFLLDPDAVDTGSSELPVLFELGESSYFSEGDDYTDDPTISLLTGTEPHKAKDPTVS

INS1 = experiment: INS-1E survival protection against cytokine death – cell-based, luminescence, retest, dose response (AID 449756); type: functional; settings: Rattus norvegicus;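 also: cell death triggered by IL-1 beta plus TNF-alpha plus IFN-gamma mixture; protective hits raise ATP signal compared with cytokine alone wells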
[8] = loss of viability in HepG2 cells – cell-based, CellTiter-Glo, cherry-picked, cytotoxicity control for Shn3 inhibitor project, dose response (AID 624134); type: functional
[9] = non-specific 3'UTR reporter inhibition in Clone20-Shn3RL – cell-based, Renilla luciferase, cherry-picked, counter-screen for Shn3 inhibitor project, dose response (AID 624133); type: functional
[10] = HEK-293T cell viability reduction – luminescence, B-cell screen hits, cytotoxicity control for BCR NF-kB inhibitor project, dose response (AID 489021); type: functional, cell-based;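 also: HEK-293T cells carrying an NF-kB luciferase reporter; cells exposed to compound for about 14 hours before viability readout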
[11] = reduction of Shn3 3'UTR-driven luciferase in osteoblasts – cell-based, Clone20 osteoblasts, firefly luciferase, cherry-picked, dose response (AID 624132); type: functional;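 also: firefly luciferase luminescence from reporter carrying the Shn3 3'UTR in osteoblasts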
[12] = intracellular Trypanosoma cruzi inhibitors in host cells – cell-based, plate reader, cherry-pick samples, set 3, dose response (AID 651818); type: functional;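 also: compounds incubated with infected cells for about four days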
[13] = viability loss in THP-1 monocytes – THP-1 cells, cytotoxicity control for Vif-APOBEC3G degradation inhibitor project, dose response (AID 1117359); type: functional; settings: THP-1
[14] = target: Glucose-6-phosphate 1-dehydrogenase (Homo sapiens, UniProt P11413); experiment: inhibition of Homo sapiens G6PD, dose series – biochemical, fluorescence, selectivity assay for P. falciparum G6PD inhibitor project, dose response (AID 504792); type: functional
[15] = target: Voltage-gated inwardly rectifying potassium channel KCNH2 (Homo sapiens, UniProt Q12809); settings: Potency;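 also: confirmatory quantitative high-throughput screen measuring inhibition of hERG channel activity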
Cytochrome P450 2C9 [16] = target: T3, Cytochrome P450 2C9 (Homo sapiens, UniProt P11712)
Cytochrome P450 3A4 = Cytochrome P450 3A4 (Homo sapiens, UniProt P08684);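 also: CYP3A4 tested as one member of a cytochrome P450 panel screen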
Cytochrome P450 2C9 [17] = target: T3, Cytochrome P450 2C9; remark: listed apart in the source
[18] = target: FAD-linked sulfhydryl oxidase ALR (Homo sapiens, UniProt P55789); experiment: ALR-catalysed DTT oxidation blockers – biochemical, H2O2 detection, luminescence, cherry-pick, dose response (AID 493248)
Sequence of FAD-linked sulfhydryl oxidase ALR (P55789 whole entry): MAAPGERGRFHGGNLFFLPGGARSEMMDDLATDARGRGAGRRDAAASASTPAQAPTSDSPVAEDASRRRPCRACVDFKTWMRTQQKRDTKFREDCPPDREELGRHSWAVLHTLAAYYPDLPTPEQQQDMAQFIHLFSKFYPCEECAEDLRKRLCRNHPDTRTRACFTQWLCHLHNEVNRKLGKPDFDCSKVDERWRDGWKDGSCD

Sequence of Voltage-gated inwardly rectifying potassium channel KCNH2 (Q12809 whole entry): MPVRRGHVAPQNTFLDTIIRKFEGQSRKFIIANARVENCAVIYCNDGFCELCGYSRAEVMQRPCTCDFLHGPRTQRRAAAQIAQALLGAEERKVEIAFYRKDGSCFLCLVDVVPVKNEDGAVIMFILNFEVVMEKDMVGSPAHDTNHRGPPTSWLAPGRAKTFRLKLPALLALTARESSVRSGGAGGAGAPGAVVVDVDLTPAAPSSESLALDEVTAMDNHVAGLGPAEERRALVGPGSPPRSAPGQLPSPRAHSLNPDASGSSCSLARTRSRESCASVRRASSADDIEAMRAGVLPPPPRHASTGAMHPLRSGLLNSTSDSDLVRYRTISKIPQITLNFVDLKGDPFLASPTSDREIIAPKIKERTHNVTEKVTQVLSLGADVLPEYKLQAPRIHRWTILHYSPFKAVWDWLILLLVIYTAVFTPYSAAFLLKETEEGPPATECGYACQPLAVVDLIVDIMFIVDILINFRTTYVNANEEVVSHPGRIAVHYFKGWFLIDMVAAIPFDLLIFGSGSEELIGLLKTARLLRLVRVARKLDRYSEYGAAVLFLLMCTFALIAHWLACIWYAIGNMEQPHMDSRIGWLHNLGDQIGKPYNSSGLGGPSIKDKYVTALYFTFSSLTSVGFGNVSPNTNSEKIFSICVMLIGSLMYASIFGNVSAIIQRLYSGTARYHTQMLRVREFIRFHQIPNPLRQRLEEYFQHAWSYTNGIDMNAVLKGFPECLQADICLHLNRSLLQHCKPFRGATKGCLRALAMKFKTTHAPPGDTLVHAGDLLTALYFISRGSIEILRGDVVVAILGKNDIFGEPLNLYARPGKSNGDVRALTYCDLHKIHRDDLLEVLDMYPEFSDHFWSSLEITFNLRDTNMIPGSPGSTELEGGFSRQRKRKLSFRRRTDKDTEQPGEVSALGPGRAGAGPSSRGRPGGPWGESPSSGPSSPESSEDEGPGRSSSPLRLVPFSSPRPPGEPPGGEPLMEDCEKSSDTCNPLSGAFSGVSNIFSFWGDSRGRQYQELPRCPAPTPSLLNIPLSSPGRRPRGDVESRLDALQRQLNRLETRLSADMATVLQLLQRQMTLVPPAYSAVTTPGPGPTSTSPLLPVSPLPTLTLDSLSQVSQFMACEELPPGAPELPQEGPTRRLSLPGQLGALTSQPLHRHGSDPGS
T1 sequence (P49327 whole entry): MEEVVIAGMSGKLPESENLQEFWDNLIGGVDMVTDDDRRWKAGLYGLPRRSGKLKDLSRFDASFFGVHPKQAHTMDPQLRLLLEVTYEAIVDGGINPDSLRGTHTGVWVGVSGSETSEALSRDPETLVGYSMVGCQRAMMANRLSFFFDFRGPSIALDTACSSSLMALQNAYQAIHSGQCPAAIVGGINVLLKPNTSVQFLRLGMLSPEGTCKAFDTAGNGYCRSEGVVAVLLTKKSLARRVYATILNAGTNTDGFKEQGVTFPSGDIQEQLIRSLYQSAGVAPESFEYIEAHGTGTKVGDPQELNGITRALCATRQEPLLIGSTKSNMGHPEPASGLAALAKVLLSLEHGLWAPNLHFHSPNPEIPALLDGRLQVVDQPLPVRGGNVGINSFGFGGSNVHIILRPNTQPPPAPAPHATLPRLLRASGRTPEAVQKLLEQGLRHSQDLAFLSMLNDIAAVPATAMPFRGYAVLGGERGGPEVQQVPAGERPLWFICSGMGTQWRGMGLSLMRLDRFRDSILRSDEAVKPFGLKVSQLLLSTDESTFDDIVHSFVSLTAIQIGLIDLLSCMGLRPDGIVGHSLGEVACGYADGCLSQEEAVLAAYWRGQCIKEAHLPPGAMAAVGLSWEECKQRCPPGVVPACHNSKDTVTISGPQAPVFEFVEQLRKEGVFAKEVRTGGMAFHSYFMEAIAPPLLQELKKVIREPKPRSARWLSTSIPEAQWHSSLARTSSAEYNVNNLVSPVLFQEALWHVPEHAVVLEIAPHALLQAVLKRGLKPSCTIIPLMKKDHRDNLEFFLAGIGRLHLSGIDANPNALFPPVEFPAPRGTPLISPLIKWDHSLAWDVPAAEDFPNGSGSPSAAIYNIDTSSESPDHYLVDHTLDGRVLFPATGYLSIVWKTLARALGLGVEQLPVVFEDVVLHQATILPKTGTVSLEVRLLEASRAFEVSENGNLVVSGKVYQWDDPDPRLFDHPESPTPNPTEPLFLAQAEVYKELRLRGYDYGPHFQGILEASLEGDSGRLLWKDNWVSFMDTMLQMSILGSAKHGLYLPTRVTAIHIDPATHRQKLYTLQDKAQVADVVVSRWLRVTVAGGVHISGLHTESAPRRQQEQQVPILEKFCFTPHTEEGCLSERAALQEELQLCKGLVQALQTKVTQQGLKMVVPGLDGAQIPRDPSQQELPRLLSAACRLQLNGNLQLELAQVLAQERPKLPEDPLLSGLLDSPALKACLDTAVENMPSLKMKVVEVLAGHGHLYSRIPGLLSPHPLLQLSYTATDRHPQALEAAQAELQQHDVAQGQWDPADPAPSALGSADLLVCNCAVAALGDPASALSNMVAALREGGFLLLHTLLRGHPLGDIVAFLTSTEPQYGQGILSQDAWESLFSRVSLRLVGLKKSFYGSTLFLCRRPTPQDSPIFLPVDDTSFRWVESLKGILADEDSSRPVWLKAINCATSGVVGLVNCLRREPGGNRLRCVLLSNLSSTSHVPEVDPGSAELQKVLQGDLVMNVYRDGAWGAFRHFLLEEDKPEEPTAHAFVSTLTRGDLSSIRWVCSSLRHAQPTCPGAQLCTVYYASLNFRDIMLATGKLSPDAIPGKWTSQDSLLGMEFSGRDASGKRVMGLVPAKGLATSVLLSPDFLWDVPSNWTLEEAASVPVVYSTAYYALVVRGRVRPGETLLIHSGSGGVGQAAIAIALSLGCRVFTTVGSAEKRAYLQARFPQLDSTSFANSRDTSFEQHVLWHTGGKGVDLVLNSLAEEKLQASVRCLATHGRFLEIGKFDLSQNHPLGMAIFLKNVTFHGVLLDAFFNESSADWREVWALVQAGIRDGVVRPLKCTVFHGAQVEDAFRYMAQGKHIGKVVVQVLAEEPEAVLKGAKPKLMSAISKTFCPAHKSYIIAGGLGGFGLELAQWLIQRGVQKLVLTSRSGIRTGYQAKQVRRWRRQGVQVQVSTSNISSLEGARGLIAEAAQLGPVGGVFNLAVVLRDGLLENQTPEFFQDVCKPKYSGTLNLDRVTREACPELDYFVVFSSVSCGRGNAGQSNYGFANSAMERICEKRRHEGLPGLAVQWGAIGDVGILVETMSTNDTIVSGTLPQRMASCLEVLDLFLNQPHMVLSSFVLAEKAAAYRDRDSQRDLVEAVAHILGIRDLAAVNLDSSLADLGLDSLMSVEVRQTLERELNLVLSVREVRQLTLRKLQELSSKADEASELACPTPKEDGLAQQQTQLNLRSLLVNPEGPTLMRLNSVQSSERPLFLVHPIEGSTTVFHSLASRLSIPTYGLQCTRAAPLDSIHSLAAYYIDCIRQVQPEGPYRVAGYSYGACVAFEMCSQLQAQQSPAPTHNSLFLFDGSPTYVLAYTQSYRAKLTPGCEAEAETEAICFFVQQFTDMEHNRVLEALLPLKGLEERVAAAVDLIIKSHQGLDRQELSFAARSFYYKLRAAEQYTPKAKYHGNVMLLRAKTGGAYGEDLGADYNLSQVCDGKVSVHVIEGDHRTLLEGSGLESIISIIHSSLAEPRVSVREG
T3 sequence (P11712 whole entry): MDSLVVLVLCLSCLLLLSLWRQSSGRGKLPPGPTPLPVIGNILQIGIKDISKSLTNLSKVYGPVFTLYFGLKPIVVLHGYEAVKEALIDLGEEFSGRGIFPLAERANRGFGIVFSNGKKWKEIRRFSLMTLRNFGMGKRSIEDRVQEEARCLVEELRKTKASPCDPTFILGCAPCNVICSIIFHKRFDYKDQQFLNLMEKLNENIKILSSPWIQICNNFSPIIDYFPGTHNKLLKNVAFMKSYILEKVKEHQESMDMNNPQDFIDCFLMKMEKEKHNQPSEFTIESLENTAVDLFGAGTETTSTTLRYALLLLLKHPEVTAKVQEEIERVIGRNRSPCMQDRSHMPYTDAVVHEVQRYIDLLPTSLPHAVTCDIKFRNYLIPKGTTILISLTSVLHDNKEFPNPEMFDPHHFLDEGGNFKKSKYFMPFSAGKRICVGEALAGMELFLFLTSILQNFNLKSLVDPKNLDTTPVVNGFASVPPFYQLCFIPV
Sequence of Cytochrome P450 3A4 (P08684 whole entry): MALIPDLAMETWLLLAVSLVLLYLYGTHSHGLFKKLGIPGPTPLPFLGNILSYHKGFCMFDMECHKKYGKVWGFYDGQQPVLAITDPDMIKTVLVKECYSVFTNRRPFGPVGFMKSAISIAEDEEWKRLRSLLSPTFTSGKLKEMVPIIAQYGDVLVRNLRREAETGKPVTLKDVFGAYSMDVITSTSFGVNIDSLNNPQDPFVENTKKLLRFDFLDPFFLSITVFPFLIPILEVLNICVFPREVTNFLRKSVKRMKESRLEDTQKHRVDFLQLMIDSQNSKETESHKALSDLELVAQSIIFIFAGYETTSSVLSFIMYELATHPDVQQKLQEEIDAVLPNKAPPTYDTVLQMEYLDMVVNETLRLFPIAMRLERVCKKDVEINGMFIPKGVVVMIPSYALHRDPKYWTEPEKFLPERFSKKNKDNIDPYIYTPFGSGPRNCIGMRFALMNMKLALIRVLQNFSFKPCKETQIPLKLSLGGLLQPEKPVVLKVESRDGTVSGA

O=C(NC(C(=O)N/N=C/c1cc([N+](=O)[O-])ccc1O)c1nnc(O)c2ccccc12)c1ccccc1 (stereo unspecified)
IC50 (Albumin): > 94.1 µM (inactive)
IC50 (Fatty acid synthase [1]): 2.76 µM (active)
IC50 (Fatty acid synthase [2]): 2.55 µM (active)

COC(=O)c1ccc(NC(=O)CSC2=NCCN2)cc1
IC50 [3]: > 100 µM (active)

COc1cc(/C=C(\C#N)C(=O)NC2CCCCC2C)ccc1OS(=O)(=O)c1ccc(C)cc1 (stereo unspecified)
AC50 [4]: 5.32 µM (active)
EC50 [5]: 9.24 µM (active)
EC50 [6]: 10.7 µM (active)
IC50 [3]: > 100 µM (active)
EC50 [7]: 2.17 µM (active)

CC(=O)c1cn(CCOc2cc(C)ccc2C)c2ccccc12
AC50 (INS1): 3.62 µM (active)
AC50 [8]: 2.19 µM (active)
AC50 [9]: 2.03 µM (active)
IC50 [10]: > 80 µM (inactive)
AC50 [11]: 1.18 µM (active)

COc1ccc(NC(=O)Nc2ccc3c(c2)CC(=O)N([C@@H](C)CO)C[C@H](C)[C@@H](CN(C)Cc2ccc(C(=O)Nc4ccccc4N)cc2)O3)cc1
AC50 [12]: 3.65 µM (active)

C=CCN1CCc2cccc3c2[C@H]1Cc1ccc(O)c(O)c1-3
CC50 [13]: > 40 µM (active)
IC50 [14]: > 80 µM (inactive)
EC50 [7]: > 260 µM (inactive)
AC50 [15]: 11.2 µM (inconclusive)

O=NN(CCO)CCO [N-NITROSODOETHANOLAMINE]
AC50 [15]: 3.16 µM (inconclusive)

COc1[nH]c2ccc(F)cc2c1C(=O)OCC1CCN(CCNS(C)(=O)=O)CC1.NS(=O)(=O)O
AC50 (Cytochrome P450 2C9 [16]): inconclusive
AC50 (Cytochrome P450 3A4): 12.6 µM (inconclusive) and 31.6 µM (inconclusive)
AC50 (Cytochrome P450 2C9 [17]): 39.8 µM (inconclusive)
AC50 [15]: 35.5 µM (inconclusive)

C[C@@H]1CN([C@H](C)CO)C(=O)Cc2cc(NC(=O)Nc3ccc(C(F)(F)F)cc3)ccc2O[C@@H]1CN(C)Cc1ccc(C(=O)Nc2ccccc2N)cc1
AC50 [12]: 2.41 µM (active)

O=C1CCNc2ccc(-c3ccccc3)cc21
IC50 [3]: > 100 µM (active)

O=C(Oc1ccccc1)c1ccccc1O [PHENYL SALICYLATE]
AC50 [15]: 50.1 µM (inconclusive)

CNC(=O)c1cc(Nc2nnc(-c3ccc(O)cc3)c3ccccc23)ccc1OC
AC50 [18]: 3.86 µM (active)
IC50 [10]: > 80 µM (inactive)

CC1CCN(CC[C@H]2CCCN2S(=O)(=O)c2cccc(O)c2)CC1
AC50 [15]: 22.4 µM (inconclusive)

CCOc1ccc(N2C(=O)c3ccccc3C2=O)cc1
IC50 [3]: > 100 µM (active)
